Measurements published in patent US20090099160A1, “4-(4-(Imidazol-4-Yl) Pyrimidin-2-Ylamino) Benzamides as CDK Inhibitors” (priority 2004, published 2009).

Key:
[1] = High Throughput Blood Level Assay - Rat; type: in vivo; settings: male, Alderley Park (AP), Wistar derived, Alpk..APfSD, plasma, oral cocktail dosing, normalised to a 1 mg/kg dose
Excerpt: (§1) The level of oral exposure of a compound can be measured by the following assay. This assay gives a semi-quantitative measure of the concentration of the compound achieved in the blood at a number of time points. Data available include Cmax (highest concentration achieved), and the AUC (area under the plasma concentration/time curve) for the compound. This gives a high throughput measure of likelihood of obtaining blood levels for each compound following oral dosing and as the data are normalised for dose, it allows direct comparison of each compound.
A cocktail of 6 compounds is formulated in propylene glycol using a combination of vortex mixing, sonication and high speed shear mixing. This formulation consists of 5 test compounds (1 mg/ml) and a standard (0.5 mg/ml). The resulting formulation is a solution or a stable (≧several hours) suspension.
The formulation is dosed (2 ml/kg) to two male rats (170-250 gm) which have been fasted for ≦16 hours then pre-dosed with water (˜10 ml/kg). The dose for the test compounds is 2 mg/kg and for the standard it is 1 mg/kg. […]
Samples are analysed by LC/MS-MS and the concentration obtained is used to determine the Cmax μg/ml (maximum compound level detected), AUC0-6 hr μg/hr/ml (area under the curve) and tmax hr (time that the maximum compound levels have been measured) for a given compound to give an indication of exposure […]

[2] = High Throughput Blood Level Assay - Mice; type: in vivo; settings: male, Alpk..APfCD-1, plasma, 2 mg/kg; AP mouse, oral cocktail dosing, normalised to 1 mg/kg
Excerpt: as §1
The above assay may be run using mice in place of rats, but with the following variations.
For a profile in mice 10 male mice are dosed at the same level as to rats but they are not fasted or predosed with water. Furthermore, samples from mice are all terminal, with 2 mice per time point.
The mice used in the above experiment were AP mice. The AP mouse was originally obtained from a commercial breeder Schoefields in 1956. The stock was rederived by fostering onto a CD-1 Charles Rivers (commercial supplier) outbred mouse and has remained a closed colony ever since. The nomenclature for these animals is Alpk..APfCD-1.

[3] = biological target: T1, CDK2/Cyclin E (Homo sapiens, UniProt P24941); assay: CDK2/Cyclin E in vitro kinase assay (Scintillation Proximity Assay, GST-Rb substrate); type: biochemical; settings: read-out: CDK2 inhibitory activity IC50
T1 construct: made in house; host or cells: Sf21 insect cells (baculovirus co-infection, pVL1393); the GST-Rb substrate was made in E. coli BL21 (DE3) pLysS
Description: The compounds were tested in an in vitro kinase assay in 96 well format using Scintillation Proximity Assay (SPA—obtained from Amersham) for measuring incorporation of [γ-33-P]-Adenosine Triphosphate into a test substrate (GST-Retinoblastoma protein; GST-Rb). In each well was placed the compound to be tested (diluted in DMSO and water to correct concentrations) and in control wells either roscovitine as an inhibitor control or DMSO as a positive control. […]
The plates were sealed with Topseal-S plate sealers, left for two hours then spun at 2500 rpm, 1124 xg., for 5 minutes. The plates were read on a Topcount for 30 seconds per well. […]
E. coli paste was resuspended in 10 ml/g of NETN buffer (50 mM Tris pH 7.5, 120 mM NaCl, 1 mM EDTA, 0.5% v/v NP-40, 1 mM PMSF, 1 μg/ml leupeptin, 1 ug/ml aprotinin and 1 ug/ml pepstatin) and sonicated for 2×45 seconds per 100 ml homogenate. […] The final product was analysed by Sodium Dodeca Sulfate (SDS) PAGE (Polyacrylamide gel) using 8-16% Tris-Glycine gels (Novex, San Diego, USA).
The open reading frames of CDK2 and Cyclin E were isolated by reverse transcriptase-PCR using HeLa cell and activated T cell mRNA as a template and cloned into the insect expression vector pVL1393 (obtained from Invitrogen 1995 catalogue number: V1392-20). […]

AUC [1] [µM·h]	Cmax [1] [nM]	AUC [2] [µM·h]	Cmax [2] [nM]	IC50 [3] [nM]	SMILES
0.83	400	1.5	680	–	Cc1ncc(-c2nc(Nc3ccc(C(=O)NC4CC4)c(F)c3)ncc2F)n1C(C)C [Example 25]
–	–	–	–	3	CNC(=O)c1ccc(Nc2ncc(F)c(-c3cnc(C)n3C(C)C)n2)cc1C [Example 28]
